Measured values: patent US20060099568A1, “Signals and molecular species involved in senescence” (priority 2002, published 2006)

Tests used:
adenylyl cyclases (ACs) = assay: measurement of adenylyl cyclase activity in membranes of LPA-treated cells; type: cell-based, human; details: 30 μg/ml LPA
Protocol: Subconfluent presenescent (passage 8, Pa 8) and near-senescent (passage 24, Pa 24) fibroblasts were serum-starved for 2 days and treated with 30 μg/ml LPA for the indicated times. The activities of adenylyl cyclase (A) and phosphodiesterase (B) were determined in the fresh membranes and total cell lysates as described in Materials and Methods. The enzyme activities were calculated as pmol/μg/min. The data represents an average of triplicate experiments.
Cells seeded in a 10-cm culture plate were serum-starved and treated with LPA as described in the figure legends. Cells were harvested and homogenized in ice-cold homogenization buffer containing 0.25 M sucrose, 10 mM Tris-HCl, pH 7.5, 10 mM MgCl2, 2 mM EGTA, and protease inhibitors. Homogenates were centrifuged at 20,000×g at 4° C. for 20 min. Pellets were washed twice with the above buffer, resuspended in 10 mM Tris-HCl, pH 7.4, and 10 MM MgCl2, and the adenylyl cyclase assays were performed as described previously (Jang et al. 2001). The membrane proteins (15 μg/ml) were incubated for 10 min at 30° C. in a reaction mixture (100 μl) containing 40 mM Tris, pH 7.4, 0.2 mM EGTA, 100 mM NaCl, 10 mM MgCl2, 0.5 mM ATP, 5 μg/ml phosphocreatine, 5 IU/ml creatine phosphokinase, 10 μM GTP, and 0.5 mM IBMX. The reaction was stopped by adding 2.5 M perchloric acid. The amount of cAMP generated was determined by cAMP binding assay.

[1] = tested on: human diploid fibroblasts; assay: growth factor-stimulated signaling events in human diploid fibroblasts; type: cell-based
Protocol: Foreskin fibroblasts were isolated as described by Boyce and Ham (1983). Cells were cultured in Dulbecco's modified Eagle's medium containing 10% fetal bovine serum and antibiotics. The primary culture contained smaller and more closely packed cells during the early stage of the culture. Cells with less than 10 passage were often considered as presenescent cells. As the cells were passaged, they became larger and they have a slower growth rate at passage 10-20. Cells from over 27 passages were completely growth-arrested and developed characteristic appearance designated previously as replicative senescence (Yeo et al., 2000a and b). In order to confirm that cells were senescent, we either examined the activity of beta-galactosidase or stained with X-gal, a membrane permeable substrate of the enzyme, which produces a blue insoluble product inside of the cells. The number of cells stained with X-gal increased with age and most of cells from passage 27-28 were stained. Cultures of over 23-28 passages have also shown the cessation of cell growth and senescence-like morphological changes, but only 70-80% of cells were stained with X-gal. These were termed “near-senescent”. Although the near-senescent cultures were not completely homogeneous, we compared the changes in these cultures to those in presenescent cultures of passage 6-10. In order to determine the growth factor-stimulated signaling events, cells were grown for 1-2 days to 60-70% sub-confluency in the culture medium, and then serum-starved to become quiescent by incubating with serum free medium (SFM) for 2 days. The quiescent cells were treated with various agonists, as described in the figure legends. To label cells, radioactive chemicals were added during the incubation with SFM.
Primary human diploid fibroblasts, isolated from newborn foreskins, were used to study the mechanism of reduced response to growth factor stimulation with aging. These cells were maintained and passaged as described previously (Yeo et al., 2000a). […] Compared to their presenescent counterparts, the senescent and near-senescent cells were larger and grew to lower density, as has been observed in other cell systems. Here the present inventors report upon the differential changes in the signaling events evoked by platelet-derived growth factor (PDGF) and lysophosphatidic acid (LPA). PDGF elicits signaling events over a concentration range of 10-100 ng/ml, whereas LPA stimulates the hydrolysis of phospholipids, Ca^2+ mobilization, and actin polymerization over a concentration range of 0.1-10 μg/ml in human diploid fibroblasts. In order to compare their cellular responses, we treated presenescent and senescent (or near-senescent) cells with PDGF and LPA at a maximally responsive dose of 50 ng/ml and 1 μg/ml, respectively.

cellular cAMP = assay: measurement of cyclic AMP accumulation (cAMP binding assay); type: cell-based, human
Protocol: FIG. 9 represents LPA-induced alteration of cellular cAMP content in presenescent and near-senescent fibroblasts. Subconfluent presenescent (passage 8, Pa 8) and near-senescent (passage 24, Pa 24) fibroblasts were serum-starved for 2 days and treated with LPA: A, 1-70 μg/ml LPA for 30 min; B, 30 μg/ml LPA for the indicated times. The level of cAMP in the acid extracts was measured by cAMP binding assay. The data represents an average of triplicate experiments.
Subconfluent near-senescent (passage 26, Pa 26) fibroblasts were serum-starved for 2 days and treated with 30 μg/ml LPA for the indicated times in the absence or presence of 10 μM PKC inhibitor bisindolylmaleiamide (bIM). The level of cAMP in the acid extracts was measured by cAMP binding assay. The data represents an average of triplicate experiments.
Cells grown on a 12 well-plate were serum-starved by incubating with SFM for 2 days. After the cells were equilibrated in the fresh SFM medium for 1 hour, they were treated with LPA as described in the figure. The reaction was terminated by removing the medium and by adding 2.5 M perchloric acid. The acid extract was stored at −20° C. until use. The acid extract was neutralized with 4.2 M KOH and the cAMP content was determined by competitive binding with [^3H]cAMP to the cAMP binding protein, RIα of cAMP-dependent protein kinase, as described by Jang and Juhnn (2001). After the extraction, cells were lyzed with 0.1 N NaOH and analyzed for protein content using the Bradford protein assay reagent. The cAMP content was normalized to the amount of acid-insoluble protein.

## lysophosphatidic acid [LPA]
Adenylyl cyclases (ACs); near-senescent cells
  total AC activity: increased
Adenylyl cyclases (ACs); presenescent cells
  total AC activity: reduced time-dependently
[1]; human diploid fibroblasts
  concentration range stimulating hydrolysis of phospholipids, Ca2+ mobilization and actin polymerization: 0.1 to 10 µg/mL
[1]; presenescent and senescent (or near-senescent) cells
  maximally responsive dose: 1 µg/mL
Cellular cAMP; near-senescent fibroblasts, 30 μg/ml LPA for 60 min
  increase of cellular cAMP content: 70-80%
Cellular cAMP; near-senescent fibroblasts, 30 min, LPA 1-70 μg/ml
  increase of cellular cAMP: 31-77%
Cellular cAMP; presenescent fibroblasts, 30 min, LPA 1-70 μg/ml
  decrease of cellular cAMP: 33-43%
